Patent publication US20220288040A1, “USE OF PYRVINIUM FOR THE TREATMENT OF A RAS PATHWAY MUTATED ACUTE MYELOID LEUKEMIA” (INSERM (INSTITUT NATIONAL DE LA SANTÉ ET DE LA RECHERCHE …, priority 2019, published 2022)

Key:
NRAS^G12A-mutated AML = format: in vivo; conditions: person, trametinib 2 mg/d, hydroxycarbamide 2000 mg daily
[1] = system: RAS pathway activated TF-1, Ba/F3 and UT-7 cells; test: Trametinib dose-range cytotoxicity in RAS pathway activated cell lines; format: cell-based, human; murine; conditions: three fold-dilutions dose-range
Procedure: UptiBlue: Cells were seeded in 100 μl of culture medium for 48 hours. […] The UptiBlue viable cell-counting reagent (Interchim, Montluçon, France) was then added for 4 hours and fluorescence was measured with a Typhoon 8600 scanner (GE Healthcare BioSciences, Buc, France).

SMILES	white blood cell count / leukocytosis (NRAS^G12A-mutated AML; second course)	toxicity in patient (NRAS^G12A-mutated AML)	cytotoxicity in RAS activated cells compared to isogenic control cells [1]
NC(=O)NO [hydroxycarbamide]	limited efficacy	hematological toxicity	
CC(=O)Nc1cccc(-n2c(=O)n(C3CC3)c(=O)c3c(Nc4ccc(I)cc4F)n(C)c(=O)c(C)c32)c1 [trametinib]		neurological toxicity	marked enhancement of trametinib cytotoxicity
